Source: US8460894B2, “Calcium-sensing receptor 2 (CaR2) and methods for using” (ABT Holding Company, priority 2002, dated 2013)
“And” between values parts separate entries of the source, which are not always exact repeats. Equal entries are not always repeated. “Also recorded” adds a separate entry of the source. One block for each molecule: values may come before it.

How the values were obtained:
[1] = target: T1, CaR2 (Homo sapiens, UniProt Q5T6X5, P91S); assay: FLIPR intracellular Ca^++ assay in HEK293 clone expressing CaR2 (HEK-167B12-2.1); format: cell-based; conditions: for FLIPR response / activation of CaR2 by ligand: initial ligand testing, ligand alone; for effect of Pb on activation of CaR2 by combined OC and Ca^++: OC and Ca^++ pre-incubated with / in the presence of Pb
T1 construct: molecular acquisition of the full-length cDNA led to the identification of the six coding exons; expressed in transfected cells
T1 sequence (Q5T6X5 19-926 P91S): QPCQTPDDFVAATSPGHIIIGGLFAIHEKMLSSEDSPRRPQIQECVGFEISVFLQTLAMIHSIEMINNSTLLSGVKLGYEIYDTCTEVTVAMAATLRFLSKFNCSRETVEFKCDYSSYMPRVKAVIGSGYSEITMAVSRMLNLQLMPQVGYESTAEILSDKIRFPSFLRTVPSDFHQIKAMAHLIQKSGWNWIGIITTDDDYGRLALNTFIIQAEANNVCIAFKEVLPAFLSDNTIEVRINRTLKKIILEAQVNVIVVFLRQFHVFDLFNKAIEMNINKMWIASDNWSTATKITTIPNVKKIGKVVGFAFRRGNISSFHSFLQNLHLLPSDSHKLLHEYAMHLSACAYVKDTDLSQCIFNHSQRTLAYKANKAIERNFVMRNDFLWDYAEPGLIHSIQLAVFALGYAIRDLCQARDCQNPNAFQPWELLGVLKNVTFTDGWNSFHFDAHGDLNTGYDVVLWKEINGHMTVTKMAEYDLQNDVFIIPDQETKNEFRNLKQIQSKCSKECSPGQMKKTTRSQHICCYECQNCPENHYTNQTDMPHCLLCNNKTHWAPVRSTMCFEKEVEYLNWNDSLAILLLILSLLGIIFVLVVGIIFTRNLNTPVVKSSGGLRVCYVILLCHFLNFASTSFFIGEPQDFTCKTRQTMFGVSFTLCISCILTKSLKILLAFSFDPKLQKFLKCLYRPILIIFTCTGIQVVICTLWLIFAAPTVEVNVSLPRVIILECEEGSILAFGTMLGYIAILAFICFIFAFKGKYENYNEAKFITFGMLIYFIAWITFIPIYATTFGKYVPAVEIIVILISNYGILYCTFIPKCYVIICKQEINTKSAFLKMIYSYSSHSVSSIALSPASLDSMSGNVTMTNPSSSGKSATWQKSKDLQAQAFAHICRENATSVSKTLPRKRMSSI
Procedure: To facilitate pharmacological experimentation, CaR2 cDNA was cloned into the mammalian expression vector pcDNA 3.1 (+) Neo with or without a COOH-terminal FLAG epitope. The transgene was introduced into the HEK293 cell line and stable transfectants were identified. These clones were analyzed for CaR2 expression by qPCR and Western blotting to identify those clones that were suitable for ligand identification.
Based on the homology to the characterized goldfish odorant receptor 5.24, initial studies investigated the ability of 18 naturally occurring amino acids to trigger changes of intracellular Ca^++ levels in the transfected cells, as measured with a fluorescent imaging plate reader (FLIPR).
(§1) Intracellular Ca^++ was measured using a fluorometric imaging plate reader (FLIPR) [Molecular Devices]. Cells were seeded at a density of 1×10^5/well (96-well plate) or 1×10^4/well (384-well plate) in collagen coated plates and incubated overnight at 36.9° C. with 5% CO2. Medium was aspirated from the plates and replaced with equal volumes of a no wash calcium dye (Molecular Devices) and modified Hank's buffered saline solution [Ca^2+-free, Mg^2+-free] (140 mM NaCl, 5.4 mM KCl, 0.64 mM KH2PO4, 3 mM NaHCO3, 5.5 mM C6H12O6, 20 mM HEPES, 2.5 mM Caprylic acid (or 2.5 mM probenecid)). The plates were incubated for 1 hour at 36.9° C. with 5% CO2. FLIPR was used to measure changes in intracellular calcium as relative fluorescence upon activation by ligand.

[2] = system: CaR; conditions: CaR in transfected HEK 293 cells; read-out: EC50 for Ca^++ at CaR; cited from earlier work
[3] = system: Saos-2 osteoblasts; assay: Osteoblast survival and proliferation in high mM Ca^++; format: cell-based
Description: Saos-2 osteoblasts (ATCC-HTB-85) express CaR2 as determined by Western Blotting.

[4] = system: parental HEK293 cells; assay: FLIPR intracellular Ca^++ assay in parental HEK293 cells (no CaR2); format: cell-based
Procedure: as §1
(§2) Also, the apical side of cells lining tubules in Henle's loop in kidney and in epithelial cells lining prostate ducts are microenvironments where a higher than standard extracellular Ca^++ can be expected.
(§3) Having shown that high calcium levels activate CaR2, the effects of several agents known to modulate bone metabolism were determined.

[5] = system: CaR; assay: Activation of CaR in transfected HEK 293 cells; format: cell-based; conditions: HEK293 cells that express the previously characterized CaR
Procedure: as §1, §2, §3

Molecule: [Ca+2] [Ca^++, calcium]
CaR2 activation by Ca^++ ([1]; 10 mM Ca^++ (FIG. 4)): modest activation
CaR2 activation by Ca^++ ([1]; 40 mM Ca^++ (FIG. 4)): robustly activated
EC50 ([1]; HEK293 clone expressing CaR2, FLIPR): 85 mM
calcium level causing marked increase in fluorescence signal (intracellular Ca^++) ([1]; clone expressing CaR2 (FIG. 2)): > 20 mM
FLIPR response / activation of CaR2 by ligand [1]: failed to elicit a positive FLIPR response
EC50 [2]: 4.1 mM and 4 mM
growth of Saos-2 cells ([3]; buffer containing 2 mM Ca^++): grew
proliferation and survival of Saos-2 cells ([3]; medium containing 10 mM Ca^++): did not proliferate
proliferation and survival of Saos-2 cells ([3]; medium containing 40 mM Ca^2+): survived and proliferated normally
increase in fluorescence signal by high calcium levels ([4]; parental cell line, >20 mM calcium): not observed

Molecule: NCCCC(=O)O [GABA, reference compound]
FLIPR response / activation of CaR2 by ligand [1]: failed to elicit a positive FLIPR response

Molecule: CN[C@H](CC(=O)O)C(=O)O [NMDA, reference compound]
FLIPR response / activation of CaR2 by ligand [1]: failed to elicit a positive FLIPR response

Molecule: [Pb+2] [Pb^++, reference compound]
effect of Pb on activation of CaR2 by combined OC and Ca^++ [1]: blocked
effect of Pb on activation of CaR2 by combined OC and Ca^++ ([1]; listed as Pb^2+): reversed

activation of CaR2 by OC ([1]; in the absence of calcium): does not activate CaR2
Molecule: OC: vitamin K-dependent bone calcium binding protein, 49 amino acids, synthesized by osteoblasts (YLYQWLGAPVPYPDPLEPRREVCELNPDCDELADHIGFQEAYRRFYGPV; UniProt P02818 52-100, looked up)
synergistic effect of OC and calcium on CaR2 ([1]; OC and calcium added separately, not pre-incubated): not when both ligands are added separately
effect of OC on activation of CaR2 by Ca^++ ([1]; OC pre-incubated with calcium): CaR2 was activated at lower calcium levels and the activation by high mM calcium was potentiated; also recorded: dose-dependent effect; also recorded: activates CaR2 when pre-incubated with 10 mM Ca^++ in a dose-dependent manner; also recorded: increases the sensitivity of CaR2 to Ca^++
effect of OC and Ca^++ [5]: not observed
effect of OC and Ca^++ ([4]; parental HEK293 cells that do not express CaR2): not observed

intracellular Ca^++ in the CaR2 clone ([1]; either ligand (BMP-2 or CT) added alone, absence of calcium): not seen
Molecule: calcitonin [CT]
